Data from article PMC5608352, “Formyl peptide derived lipopeptides disclose differences between the receptors in mouse and men and call the pepducin concept in question” (PLoS ONE, 2017).
Residues, ends and D or L forms follow the SMILES beside them. *: point of attachment. Palmitoyl = CCCCCCCCCCCCCCCC(=O)*

How the values were obtained:
mouse neutrophils = biological target: T1, mouse neutrophils (Mus musculus, UniProt O88536); experiment: Direct activation: superoxide release (isoluminol/HRP chemiluminescence), WT mouse bone marrow neutrophils; assay type: cell-based; conditions: approximate value given in running text
T1 sequence (O88536 1-351): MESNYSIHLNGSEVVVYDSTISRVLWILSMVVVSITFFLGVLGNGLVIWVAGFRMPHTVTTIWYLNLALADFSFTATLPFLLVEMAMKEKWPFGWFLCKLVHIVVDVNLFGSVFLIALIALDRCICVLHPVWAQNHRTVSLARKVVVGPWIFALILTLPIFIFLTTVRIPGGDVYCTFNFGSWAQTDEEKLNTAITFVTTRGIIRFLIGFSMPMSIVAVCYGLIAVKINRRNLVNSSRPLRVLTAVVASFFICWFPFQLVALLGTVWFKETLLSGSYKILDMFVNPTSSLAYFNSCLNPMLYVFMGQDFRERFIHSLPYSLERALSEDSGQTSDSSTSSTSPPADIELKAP
Description: (§1) Mice (8–12 weeks of age) were killed by cervical dislocation, the femurs and tibias were removed and freed of soft tissue attachments, and the extreme distal tip of each extremity was cut off. KRG without Ca^2+ and Mg^2+ (KRG-) was forced through the bone by using a 1-mL syringe with a 27-gauge needle. After dispersing cell clumps and removing the debris, the bone marrow granulocytes were isolated according to an earlier described procedure with some modifications. Briefly, a cell suspension in 2 mL of KRG- was laid on top of a three-layer Percoll gradient (1.095, 1.085, and 1.070 g/mL). The density of each Percoll solution was verified using density marker beads. After centrifugation at 500 × g for 30 min at 4°C in a swinging bucket rotor, the lowest band (1.085/1.095 g/mL interface) was collected as the neutrophil fraction. After washing with KRG-, remaining red blood cells were eliminated by hypotonic lysis. After a final wash with KRG-, the cells were resuspended in KRG. The cell number and population of bone marrow cells were determined by flow cytometry based on forward scatter (size) and side scatter (density) localization.
NADPH-oxidase activity was determined using an isoluminol and HRP-enhanced chemiluminescence (CL) system that allow for the determination of superoxide production. The CL activity was measured in a six-channel Biolumat LB 9505 apparatus (Berthold Co., Wildbad, Germany), using disposable 4-mL polypropylene tubes with 1 mL reaction mixture. The tubes contained 4 U HRP and 10 μg/mL isoluminol together with the cells that were equilibrated in the Biolumat for 5 min at 37°C, after which the stimulus solution (100 μL) was added. The light emission was recorded continuously over time and presented as superoxide production (in arbitrary light units, cpm x10^-6) as a function of time (min). The activity before stimulus addition was recorded as basal line and this activity was not changed in vehicle control samples. Since the FPR/Fpr-mediated superoxide production with respect to the onset and decline are very similar, the peak activities were used to compare the responses induced.
Naïve bone marrow cells produce very low levels of superoxide upon stimulation and to increase this production the cells were routinely primed for one hour at RT followed by TNF-α (10 ng/mL, final concentration) priming for a period of 20 min at 37°C [10]. The cells were then kept on ice until further analysis, as described above. The reason for choosing the chemiluminescence based NADPH-oxidase assay system was that very few cells are required, allowing us to monitor and quantify receptor-mediated events with the limited number of mouse bone marrow neutrophils available.
Data analysis was performed using Graph Pad Prism 7.0. The EC50/IC50 values were determined from experiments in which the activities were normalized to the response induced by maximal response or induced by agonist in the absence of inhibitor. The statistical analysis was performed on raw data using Student’s t-test when two groups were compared or one-way ANOVA with Dunnett’s multiple comparisons test in comparison to the control response when three groups were compared. * p ≤ 0.05 was considered significant.

Fpr2 [1] = biological target: T2, Fpr2 (Mus musculus, UniProt O88536); experiment: Inhibition of F2Pal16-induced superoxide release, WT mouse neutrophils; assay type: cell-based; conditions: Boc2 2 μM or peptidomimetic inhibitor 1 μM (five experiments), or mF2Pal16 500 nM against F2Pal16 500 nM (three experiments); 5 min pre-incubation
T2 construct: WT mouse neutrophils (5 x 10^4 cells) were pre-incubated without (solid line) or with mF2Pal16; endogenous in cells; host or cells: bone marrow neutrophils of C57BL/6 wild-type mice, TNF-alpha primed
T2 sequence (O88536 1-351): T1 sequence (O88536 1-351)
Description: as §1
NADPH-oxidase activity was determined using an isoluminol and HRP-enhanced chemiluminescence (CL) system that allow for the determination of superoxide production. The CL activity was measured in a six-channel Biolumat LB 9505 apparatus (Berthold Co., Wildbad, Germany), using disposable 4-mL polypropylene tubes with 1 mL reaction mixture. […] The light emission was recorded continuously over time and presented as superoxide production (in arbitrary light units, cpm x10^-6) as a function of time (min). The activity before stimulus addition was recorded as basal line and this activity was not changed in vehicle control samples. […]
Data analysis was performed using Graph Pad Prism 7.0. The EC50/IC50 values were determined from experiments in which the activities were normalized to the response induced by maximal response or induced by agonist in the absence of inhibitor. […]

Fpr2 [2] = biological target: T2, Fpr2; set-up: method as in PMID 27614010; conditions: ref [12]; cited from earlier work
Description: When looking at the FPRs in different species it is clear that the receptor family has a complex evolutionary history, as illustrated by the fact that the number of genes in the family vary markedly in mouse and man. […] As different mouse models constitute important tools for translational studies aiming to understa ... || Genetically modified mouse strains and mouse disease models provide excellent tools to study the function of neutrophil FPRs in vivo. Such studies have indicated Fprs (in particular Fpr2) as important regulators of the physiological processes leading to resolution of inflammation. However, a direct translation of mouse data to human studies is hampered due to the distant phylogenetic relationship between mouse and human receptors. In addition to the different number of Fpr genes in mice and humans and an incomplete understanding of the evolutionary relationship between human FPRs ...

Fpr2^-/- neutrophils = experiment: Direct activation: superoxide release, Fpr2^-/- mouse neutrophils compared with WT; assay type: cell-based; conditions: fMIFL 10 nM, reference response
Description: C57BL/6 wild-type mice were purchased from Charles River Laboratories and Fpr2^−/− mice generated as described previously, were generously provided by Dr Ji Ming Wang, Frederick National Laboratory for Cancer Research, USA. Mice were kept under standard temperature and light conditions and fed laboratory chow and water ad libitum, at the Department of Rheumatology and Inflammation Research, University of Gothenburg. Sex matched WT and Fpr2^-/- animals (age 8–10 weeks) were used to isolated bone marrow derived neutrophils. The studies performed were approved by the Ethical Committee for Animal Experimentation, Göteborg, Sweden.
Mice (8–12 weeks of age) were killed by cervical dislocation, the femurs and tibias were removed and freed of soft tissue attachments, and the extreme distal tip of each extremity was cut off. […] The cell number and population of bone marrow cells were determined by flow cytometry based on forward scatter (size) and side scatter (density) localization.
NADPH-oxidase activity was determined using an isoluminol and HRP-enhanced chemiluminescence (CL) system that allow for the determination of superoxide production. The CL activity was measured in a six-channel Biolumat LB 9505 apparatus (Berthold Co., Wildbad, Germany), using disposable 4-mL polypropylene tubes with 1 mL reaction mixture. […]

Row | Compound | EC50 (mouse neutrophils) [µM] | activity at mouse Fprs (earlier work) (Fpr2 [2]) | further results
1 | CCCCCCCCCCCCCCCC(=O)N[C@@H](CCCCN)C(=O)N[C@H](C(=O)N[C@@H](Cc1c[nH]cn1)C(=O)N[C@@H](CCCCN)C(=O)N[C@@H](CCC(N)=O)C(=O)NCC(=O)N[C@@H](CC(C)C)C(=O)N[C@H](C(=O)N[C@@H](CCCCN)C(=O)N[C@@H](CO)C(=O)N[C@@H](CO)C(=O)N[C@@H](CCCNC(=N)N)C(=O)N1CCC[C@H]1C(=O)N[C@@H](CC(C)C)C(=O)N[C@@H](CCCNC(=N)N)C(=O)N[C@H](C(=O)O)C(C)C)[C@@H](C)CC)[C@@H](C)CC [F1Pal16] (Palmitoyl-KIHKQGLIKSSRPLRV-OH) | ~0.3 | – | –
2 | CCCCCCCCCCCCCCCC(=O)N[C@@H](CCCCN)C(=O)N[C@H](C(=O)N[C@@H](Cc1c[nH]cn1)C(=O)N[C@@H](CCCCN)C(=O)N[C@@H](CCCCN)C(=O)NCC(=O)N[C@@H](CCSC)C(=O)N[C@H](C(=O)N[C@@H](CCCCN)C(=O)N[C@@H](CO)C(=O)N[C@@H](CO)C(=O)N[C@@H](CCCNC(=N)N)C(=O)N1CCC[C@H]1C(=O)N[C@@H](CC(C)C)C(=O)N[C@@H](CCCNC(=N)N)C(=O)N[C@H](C(=O)O)C(C)C)[C@@H](C)CC)[C@@H](C)CC [F2Pal16] (Palmitoyl-KIHKKGMIKSSRPLRV-OH) | ~0.3 | – | –
3 | Lau-(Lys-βNSpe)6-NH2 | – | – | effect of inhibitor on F2Pal16 response, WT mouse neutrophils (Fpr2 [1]): significantly reduced
4 | WKYMVM [FPR2 specific agonist] | – | low affinity for their mouse orthologous | –
5 | fMIFL [reference compound] | – | potently and selectively activate Fpr1 | fMIFL superoxide response in Fpr2^-/- versus WT neutrophils (Fpr2^-/- neutrophils): comparable in WT and Fpr2 deficient neutrophils
6 | fMLF | – | low affinity for their mouse orthologous | –
